SMILES strings stand for the structures.

In one experiment the test system is Vcap cells. The experiment can be described thus: Dihydrotestosterone (DHT) mediated XTT cell proliferation assay for screening AR antagonists using Vcap cells. Format: cell-based. Particulars: Homo sapiens, 240 h, in the presence of 0.2 nM DHT, XTT readout on Day 10, IC50 curves from 8 concentrations. As to the method: Dihydrotestosterone (DHT) Mediated XTT Cell Proliferation Assay for Screening AR Antagonists Using Vcap cells
The Vcap cells (4×10^6 cells) were seeded in a T-75 flask containing DMEM with 15% FBS. After 72 hours, the media was removed; the cells were washed once and replaced with phenol red free DMEM containing 8% charcoal stripped serum. Then, the cells were starved in phenol red free DMEM with 8% charcoal stripped serum for 5 days. Following the starvation, the cells were harvested and seeded in 96 well plates (10×10^3 cells per well) in phenol red free DMEM with 8% charcoal stripped serum (Day 0). The cells were allowed to settle and on Day 4 they were treated with different concentrations of the compound (30 μM, 10 μM, 1 μM, 500 nM, 100 nM, 10 nM, 1 nM, 0.1 nM) in the presence of 0.2 nM DHT. DHT alone and a DMSO controls were also included. All treatments were done in triplicate. The drugs were replenished on Day 7 and the cells were allowed to grow for another 72 hours. On Day 10, the experiment was terminated by adding the XTT reagent (2,3-bis[2-methoxy-4-notro-5-sulfophenyl]-2H-tetrazolium-5-caboxyanilide inner salt) dissolved in Phenol red free DMEM without serum. The cells with the XTT reagents were incubated inside the CO2 incubator for 3-4 hours for color development; after which the readings were taken at […] using a spectramax Gemini plate reader.
Data fitting: The IC50 curves for the 8 compound concentrations were calculated with GraphPad Prism software using the sigmoidal dose-response function. (Graphpad Software, San Diego, Calif., USA).
With `CNC(=O)c1ccc(C2=C[C@@H]3[C@@H](CC2)N(c2ccc(C#N)c(C(F)(F)F)c2)C(=O)N3C)cc1F` (racemic) [Example 88, Trans-4-(1-(4-cyano-3-(trifluoromethyl)phenyl)-3-methyl-2-oxo-2,3,3a,6,7,7a-hexahydro-1H-benzo[d]imidazol-5-yl)-2-fluoro-N-methylbenzamide (±)], the IC50 worked out at 0.218 µM.
The same measure, in the same setting: the value for `CS(=O)(=O)Nc1ccc(N2C(=O)N(c3ccc(C#N)c(C(F)(F)F)c3)[C@@H]3CCCC[C@H]32)cc1F` (racemic) [Example 16, Trans-N-(4-(3-(4-cyano-3-(trifluoromethyl)phenyl)-2-oxooctahydro-1H-benzo[d]imidazol-1-yl)-2-fluorophenyl)methanesulfonamide (±)] was 2.45 µM; that for `N#Cc1ccc(N2C(=O)N(c3ccc(C(N)=O)cc3)[C@H]3CCCC[C@@H]32)cc1C(F)(F)F` [Example 66, 4-((3aS,7aS)-3-(4-cyano-3-(trifluoromethyl)phenyl)-2-oxooctahydro-1H-benzo[d]imidazol-1-yl)benzamide] was 0.261 µM; that for `CNC(=O)c1ccc(N2C(=O)N(c3ccc(C#N)c(C(F)(F)F)c3)[C@H]3C=CCC[C@@H]32)cc1F` (racemic) [Example 86, trans-4-(3-(4-cyano-3-(trifluoromethyl)phenyl)-2-oxo-2,3,3a,6,7,7a-hexahydro-1H-benzo[c]imidazol-1-yl)-2-fluoro-N-methylbenzamide (±)] was 0.043 µM.
`N#Cc1ccc(N2C(=O)N(c3cc(Cl)cc(Cl)c3)[C@H]3CCCC[C@@H]32)cc1C(F)(F)F` [Example 44, 4-((3aS,7aS)-3-(3,5-dichlorophenyl)-2-oxooctahydro-1H-benzo[d]imidazol-1-yl)-2-(trifluoromethyl)benzonitrile]: the IC50 stood at 0.0964 µM.
Take `N#Cc1ccc(N2C(=O)N(c3ccc(C(N)=O)c(F)c3)[C@@H]3CCCC[C@H]32)cc1C(F)(F)F` (racemic) [Example 30, Trans-4-(3-(4-cyano-3-(trifluoromethyl)phenyl)-2-oxooctahydro-1H-benzo[d]im-idazol-1-yl)-2-fluorobenzamide (±)]: the half-maximal inhibitory concentration (IC50) is 0.0764 µM.
In the case of `CNC(=O)c1ccc(N2C(=O)N(c3ccc(C#N)c(C(F)(F)F)c3)[C@@H]3CC(OC)CC[C@H]32)cc1F` (mixture of isomers) [Example 85, Trans-4-(3-(4-cyano-3-(trifluoromethyl)phenyl)-5-methoxy-2-oxooctahydro-1H-benzo[d]imidazol-1-yl)-2-fluoro-N-methylbenzamide (±)], the IC50 was determined as 2.62 µM.
Same read-out and setting: the same measure for `CONC(=O)c1ccc(N2C(=O)N(c3ccc(C#N)c(C(F)(F)F)c3)[C@@H]3CCCC[C@H]32)cc1F` (racemic) [Example 18, Trans-4-(3-(4-cyano-3-(trifluoromethyl)phenyl)-2-oxooctahydro-1H-benzo[d]im-idazol-1-yl)-2-fluoro-N-methoxybenzamide (±)]: 0.374 µM.
For `Cc1cc(N2C(=O)N(c3ccc(C#N)c(C(F)(F)F)c3)[C@H]3CCCC[C@@H]32)ccc1C(=O)O` [Example 69, 4-((3aS,7aS)-3-(4-cyano-3-(trifluoromethyl)phenyl)-2-oxooctahydro-1H-benzo[d]imidazol-1-yl)-2-methylbenzoic acid], the IC50 is over 10 µM.
Same read-out and setting: the value for `CNC(=O)c1ccc(N2C(=O)N(c3ccc(C#N)c(C(F)(F)F)c3)[C@@H]3CCC(=O)C[C@H]32)cc1F` (racemic) [Example 81, Trans-4-(3-(4-cyano-3-(trifluoromethyl)phenyl)-2,6-dioxooctahydro-1H-benzo[d]imidazol-1-yl)-2-fluoro-N-methylbenzamide (±)] was 0.703 µM; that for `N#Cc1ccc(N2C(=O)N(c3ccc(CO)c(F)c3)[C@H]3CCCC[C@@H]32)cc1C(F)(F)F` [Example 46, 4-((3aS,7aS)-3-(3-fluoro-4-(hydroxymethyl)phenyl)-2-oxooctahydro-1H-benzo[d]imidazol-1-yl)-2-(trifluoromethyl)benzonitrile] was 0.66 µM; that for `N#Cc1ccc(N2C(=O)N(Cc3ccc(Cl)nc3)[C@@H]3CCCC[C@H]32)cc1C(F)(F)F` (racemic) [Example 47, Trans-4-(3-((6-chloropyridin-3-yl)methyl)-2-oxooctahydro-1H-benzo[d]imidazol-1-yl)-2-(trifluoromethyl)benzonitrile (±)] was 0.0616 µM.
Same read-out and setting: the same measure for `N#Cc1ccc(N2C(=O)N(Cc3ccc(-n4ccnc4)nc3)[C@@H]3CCCC[C@H]32)cc1C(F)(F)F` (racemic) [Example 49, Trans-4-(34(6-(1H-imidazol-1-yl)pyridin-3-yl)methyl)-2-oxooctahydro-1H-benzo[d]imidazol-1-yl)-2-(trifluoromethyl)benzonitrile (±)]: 0.3 µM; for `N#Cc1ccc(N2C(=O)N(c3cnccc3C3CC3)[C@H]3CCCC[C@@H]32)cc1C(F)(F)F` [Example 62, 4-((3aS,7aS)-3-(4-cyclopropylpyridin-3-yl)-2-oxooctahydro-1H-benzo[d]imidazol-1-yl)-2-(trifluoromethyl)benzonitrile]: 2.16 µM.
In the case of `Cc1ccncc1N1C(=O)N(c2ccc(C#N)c(C(F)(F)F)c2)[C@H]2CCCC[C@@H]21` [Example 63, 4-((3aS,7aS)-3-(4-methylpyridin-3-yl)-2-oxooctahydro-1H-benzo[d]imidazol-1-yl)-2-(trifluoromethyl)benzonitrile], the IC50 is 2.29 µM.
For the molecule `N#Cc1ccc(N2C(=O)N(c3cccc(S(N)(=O)=O)n3)[C@@H]3CCCC[C@H]32)cc1C(F)(F)F` (racemic) [Example 9, Trans-6-(3-(4-cyano-3-(trifluoromethyl)phenyl)-2-oxooctahydro-1H-benzo[c]imidazol-1-yl) pyridine-2-sulfonamide (±)], the IC50 is over 10 µM.
As for `N#Cc1ccc(CN2C(=O)N(c3ccc(C#N)c(C(F)(F)F)c3)[C@@H]3CCCC[C@H]32)cn1` (racemic) [Example 48, Trans-5-((-(4-cyano-3-(trifluoromethyl)phenyl)-2-oxooctahydro-1H-benzo[d]im-idazol-1-yl)methyl)picolinonitrile (±)], the concentration for half-maximal inhibition (IC50) was over 10 µM.
Turning to `N#Cc1ccc(N2C(=O)N(c3ccc(C(N)=O)nc3)[C@H]3CCCC[C@@H]32)cc1C(F)(F)F` [Example 55, 5-((3aS,7aS)-3-(4-cyano-3-(trifluoromethyl)phenyl)-2-oxooctahydro-1H-benzo[d]imidazol-1-yl)picolinamide], the 50% inhibitory concentration (IC50) was 0.174 µM.
For the molecule `CC(=O)N(C)c1ccc(N2C(=O)N(c3ccc(C#N)c(C(F)(F)F)c3)[C@@H]3CCCC[C@H]32)cc1F` (racemic) [Example 13, Trans-N-(4-(3-(4-cyano-3-(trifluoromethyl)phenyl)-2-oxooctahydro-1H-benzo[d]imidazol-1-yl)-2-fluorophenyl)-N-methylacetamide (±)], the IC50 turned out to be 1.05 µM.
`N#Cc1ccc(N2C(=O)N(c3ccoc3)[C@@H]3CCCC[C@H]32)cc1C(F)(F)F` (racemic) [Example 3, Trans-4-(3-(furan-3-yl)-2-oxoocta-hydro-1H-benzo[d]imidazol-1-yl)-2-trifluoromethyl)benzonitrile (±)]: the 50% inhibitory concentration (IC50) stood at 1.52 µM.
`CNC(=O)c1ccc(N2C(=O)N(c3ccc(C#N)c(C(F)(F)F)c3)[C@@H]3CCCCC[C@H]32)cc1F` (racemic) [Example 80, Trans-4-(3-(4-cyano-3-(trifluoromethyl)phenyl)-2-oxooctahydrocyclohepta[d]imidazol-1(2H)-yl)-2-fluoro-N-methylbenzamide (±)]: the 50% inhibitory concentration (IC50) turned out to be 0.255 µM.
For `N#Cc1ccc(N2C(=O)N(Cc3cc[nH]n3)[C@@H]3CCCC[C@H]32)cc1C(F)(F)F` (racemic) [Example 51, Trans-4-(3-((1H-pyrazol-3-yl)methyl)-2-oxooctahydro-1H-benzo[d]imidazol-1-yl)-2-(trifluoromethyl)benzonitrile (±)], the IC50 stood at 1.08 µM.

The same experiment, now with this note: in the presence of 0.2 nM DHT, XTT readout on Day 10, IC50 curves from 8 concentrations.
For the molecule `CNC(=O)c1ccc(N2C(=O)N(c3ccc(C#N)c(C(F)(F)F)c3)[C@@H]3CCCCC[C@H]32)cc1F` (relative stereo) [Example 80b, Trans-4-(3-(4-cyano-3-(trifluoromethyl)phenyl)-2-oxooctahydrocyclohepta[d]imidazol-1(2H)-yl)-2-fluoro-N-methylbenzamide (+)], the IC50 amounted to 2.18 µM.
On to `N#Cc1ccc(N2C(=O)N(c3ccccc3)[C@@H]3CCCC[C@H]32)cc1C(F)(F)F` (relative stereo) [Example 5b, Trans-4-(2-oxo-3-phenyloctahydro-1H-benzo[d]imidazol-1-yl)-2-(trifluoromethyl)benzonitrile (−)], for which the IC50 is 1.05 µM.
Consider `N#Cc1ccc(N2C(=O)N(c3ccc(C#N)c(C(F)(F)F)c3)[C@@H]3CCCC[C@H]32)cc1C(F)(F)F` (relative stereo) [Example 2b, Trans-4,4′-(2-oxohexahydro-1H-benzo[d]imidazole-1,3(2H)-diyl)bis(2-(trifluoromethyl)benzonitrile) (+)], for which the half-maximal inhibitory concentration (IC50) was over 10 µM.
Consider `CNC(=O)c1ccc(N2C(=O)N(c3ccc(C#N)c(C(F)(F)F)c3)C3CCC(O)CC32)cc1F` (single isomer, unassigned) [Example 82b, Trans-4-(3-(4-cyano-3-(trifluoromethyl)phenyl)-6-hydroxy-2-oxooctahydro-1H-benzo[d]imidazol-1-yl)-2-fluoro-N-methylbenzamide (−)], for which the 50% inhibitory concentration (IC50) is 0.312 µM.

Usually IC50 stands for the concentration at which inhibition is half-maximal.

For the origin of these results see patent publication US20140329858A1, “Cyclic Urea Derivatives As Androgen Receptor Antagonists” (priority 2011, published 2014).
